The MBC is the lowest tested concentration that kills the bacteria rather than only halting them.

In brackets after ≈: the same amount, converted by molar mass.

These results are taken from ChEMBL document CHEMBL1142187, “In vitro and in vivo activities of Chios mastic gum extracts and constituents against Helicobacter pylori” (2007).

The test has as its system Helicobacter pylori. In words: Antibacterial activity against Helicobacter pylori after 48 hrs. It counts as functional.
For `C/C(=C/CC[C@H](C)C1CC[C@]2(C)C3=CCC4C(C)(C)[C@@H](O)CC[C@]4(C)C3CC[C@@]12C)C(=O)O` (stereo partly specified), the MBC was found to be 220 µg/mL (≈ 482 µM).

In the case of `C/C(=C/CC[C@H](C)C1CC[C@]2(C)C3=C(CC[C@@]12C)[C@@]1(C)CC[C@H](O)C(C)(C)C1CC3)C(=O)O` (stereo partly specified), the MBC came to 202 µg/mL (≈ 442 µM). Consider `C/C(=C/CC[C@H](C)C1CC[C@]2(C)C3=C(CC[C@@]12C)[C@@]1(C)CCC(=O)C(C)(C)C1CC3)C(=O)O` (stereo partly specified), for which the minimal bactericidal concentration (MBC) stood at 333 µg/mL (≈ 732 µM).

On to `C/C(=C/CC[C@H](C)C1CC[C@]2(C)C3=CCC4C(C)(C)C(=O)CC[C@]4(C)C3CC[C@@]12C)C(=O)O` (stereo partly specified), for which the MBC stood at 350 µg/mL (≈ 770 µM). With `CC1(C)C=C2[C@H]3CC[C@@H]4[C@@]5(C)CCC(=O)C(C)(C)[C@@H]5CC[C@@]4(C)[C@]3(C)CC[C@@]2(C(=O)O)CC1` [MORONIC ACID] the figure was 310 µg/mL (≈ 682 µM); with `CC1(C)CC[C@]2(C(=O)O)CC[C@]3(C)C(=CC[C@@H]4[C@@]5(C)CCC(=O)C(C)(C)[C@@H]5CC[C@]43C)[C@@H]2C1` [OLEANONIC ACID], 292 µg/mL (≈ 642 µM).
